Values of other authors as cited in patent US20120190734A1, “COMPOUNDS AND COMPOSITIONS FOR TREATING INFECTION” (priority 2011, published 2012).

Tests used:
[1] = tested on: influenza virus
[2] = tested on: herpes simplex virus (HSV-2)
[3] = target: HIV-1 reverse transcriptase (Human immunodeficiency virus type 1 group M subtype B, UniProt P04585)
[4] = tested on: HIV-1

| Compound | anti-herpes simplex virus (HSV-2) activity in vitro [2] | effect on HIV-1 reverse transcriptase activity [3] | further results |
| --- | --- | --- | --- |
| O=c1cc(-c2ccc(O)cc2)oc2cc(O)cc(O)c12 [5,7,4-truhydroxyflavone] |  |  | anti-influenza virus activity [1]: anti-influenza virus activity |
| O=C(O[C@@H]1O[C@@H]2COC(=O)c3cc(O)c(O)c(O)c3-c3c(cc(O)c(O)c3O)C(=O)O[C@H]2[C@H](OC(=O)c2cc(O)c(O)c(O)c2)[C@H]1OC(=O)c1cc(O)c(O)c(O)c1)c1cc(O)c(O)c(O)c1 [Eugeniin] | exhibited anti-herpes simplex virus (HSV-2) activity |  |  |
| COC(=O)c1cc(O)c(O)c(O)c1 [methyl gallate] | exhibited anti-herpes simplex virus (HSV-2) activity |  |  |
| COCc1cc2cc(OC)c(OC)cc2c(-c2ccc3c(c2)OCO3)c1C=O [phyllamycin B] |  | inhibitory effect |  |
| COc1cc2cc3c(c(-c4ccc5c(c4)OCO5)c2cc1OC)COC3=O [retrojusticiden B] |  | inhibitory effect |  |
| Prunellin |  |  | minimum inhibition concentration against HIV-1 in vitro [4]: 2.2 µg/mL |
